In the supplement of paper PMC11451515:

System: P12-Ichikawa
Test: cell viability relative to DMSO control; higher = less cytotoxic
Settings: 48 h
Procedure, shortened: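 NOMO1, SEM and P12-Ichikawa leukemia cells spent at least four passages adapting to each medium before use. They were seeded at 500 cells/well (NOMO1, SEM) or 1000 cells/well (P12-Ichikawa) in 5 μl in 1536-well plates and pin-dosed with library compounds in DMSO at 11 threefold steps from 47 μM down to 0.79 nM. After 48 h at 37°C, CellTiter-Glo One luminescence was read. Viability is reported as a percentage of the DMSO wells on each plate, with cell-free wells as background.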

[1] = HPLM + 10% dialyzed FBS, 0.000781 µM
[2] = HPLM + 10% dialyzed FBS, 0.00234 µM
[3] = HPLM + 10% dialyzed FBS, 0.00702 µM
[4] = HPLM + 10% dialyzed FBS, 0.0211 µM
[5] = HPLM + 10% dialyzed FBS, 0.0632 µM
[6] = HPLM + 10% dialyzed FBS, 0.19 µM
[7] = HPLM + 10% dialyzed FBS, 0.569 µM
[8] = HPLM + 10% dialyzed FBS, 1.71 µM
[9] = HPLM + 10% dialyzed FBS, 5.12 µM
[10] = HPLM + 10% dialyzed FBS, 15.4 µM
[11] = HPLM + 10% dialyzed FBS, 46.1 µM
[12] = RPMI 5 mM glucose + 10% FBS, 0.000781 µM
[13] = RPMI 5 mM glucose + 10% FBS, 0.00234 µM
[14] = RPMI 5 mM glucose + 10% FBS, 0.00702 µM
[15] = RPMI 5 mM glucose + 10% FBS, 0.0211 µM
[16] = RPMI 5 mM glucose + 10% FBS, 0.0632 µM
[17] = RPMI 5 mM glucose + 10% FBS, 0.19 µM
[18] = RPMI 5 mM glucose + 10% FBS, 0.569 µM
[19] = RPMI 5 mM glucose + 10% FBS, 1.71 µM
[20] = RPMI 5 mM glucose + 10% FBS, 5.12 µM
[21] = RPMI 5 mM glucose + 10% FBS, 15.4 µM
[22] = RPMI 5 mM glucose + 10% FBS, 46.1 µM
[23] = RPMI 5 mM glucose + 10% dialyzed FBS, 0.000781 µM
[24] = RPMI 5 mM glucose + 10% dialyzed FBS, 0.00234 µM
[25] = RPMI 5 mM glucose + 10% dialyzed FBS, 0.00702 µM
[26] = RPMI 5 mM glucose + 10% dialyzed FBS, 0.0211 µM
[27] = RPMI 5 mM glucose + 10% dialyzed FBS, 0.0632 µM
[28] = RPMI 5 mM glucose + 10% dialyzed FBS, 0.19 µM
[29] = RPMI 5 mM glucose + 10% dialyzed FBS, 0.569 µM
[30] = RPMI 5 mM glucose + 10% dialyzed FBS, 1.71 µM
[31] = RPMI 5 mM glucose + 10% dialyzed FBS, 5.12 µM
[32] = RPMI 5 mM glucose + 10% dialyzed FBS, 15.4 µM
[33] = RPMI 5 mM glucose + 10% dialyzed FBS, 46.1 µM

SMILES	cell viability [1]	cell viability [2]	cell viability [3]	cell viability [4]	cell viability [5]	cell viability [6]	cell viability [7]	cell viability [8]	cell viability [9]	cell viability [10]	cell viability [11]	cell viability [12]	cell viability [13]	cell viability [14]	cell viability [15]	cell viability [16]	cell viability [17]	cell viability [18]	cell viability [19]	cell viability [20]	cell viability [21]	cell viability [22]	cell viability [23]	cell viability [24]	cell viability [25]	cell viability [26]	cell viability [27]	cell viability [28]	cell viability [29]	cell viability [30]	cell viability [31]	cell viability [32]	cell viability [33]
CC(C)(C)C(=O)Oc1ccc([S+](=O)([O-])Nc2ccccc2C(=O)NCC(=O)O)cc1	113%	114%	113%	111%	117%	122%	116%	115%	111%	123%	133%	107%	106%	111%	106%	115%	123%	113%	119%	126%	131%	134%	112%	115%	106%	118%	113%	117%	120%	121%	122%	132%	138%
Cc1cc(Nc2nc(N[C@@H](C)c3ncc(F)cn3)ncc2Cl)n[nH]1	95.1%	111%	109%	114%	116%	119%	126%	108%	70.6%	55%	56.9%	113%	122%	116%	126%	112%	112%	118%	118%	115%	98%	42.5%	109%	110%	119%	117%	121%	119%	109%	118%	90.8%	50.6%	45.2%
CN(C/C=C/C#CC(C)(C)C)Cc1cccc2ccccc12	96.2%	103%	101%	104%	105%	103%	106%	90.6%	103%	105%	107%	90.6%	93.1%	100%	93.8%	100%	105%	101%	101%	98.9%	102%	94.5%	92.3%	94.4%	89.7%	92.3%	99.5%	90.8%	90.9%	96.5%	91.8%	91.3%	93.8%
C1CCC(C(CC2CCCCN2)C2CCCCC2)CC1 (stereo not drawn)	115%	117%	124%	119%	128%	124%	129%	127%	119%	123%	88.3%	118%	123%	124%	115%	128%	134%	126%	119%	131%	106%	54.2%	109%	127%	107%	122%	123%	124%	122%	126%	117%	115%	67.7%
Oc1ccc(/C=C/c2cc(O)cc(O)c2)cc1	111%	110%	110%	114%	105%	111%	115%	103%	105%	108%	41.4%	116%	118%	116%	118%	118%	112%	117%	106%	111%	101%	58.6%	108%	111%	111%	112%	113%	116%	121%	108%	103%	84.5%	36.9%
CC1(C)CCC(=C(CN2CCN(CC2)C3=CC=C(C=C3)C(=O)N[S+]([O-])(=O)C4=CC(=C(N[C@H](CCN5CCOCC5)CSC6=CC=CC=C6)C=C4)[S+]([O-])(=O)C(F)(F)F)\C1)/C7=CC=C(Cl)C=C7	116%	120%	121%	122%	92.5%	40.9%	20%	6.68%	7.29%	7.3%	4.74%	–	–	–	–	–	–	–	–	–	–	–	120%	124%	127%	122%	109%	73.4%	39.1%	7.42%	7.07%	6.25%	4.69%
CC(C)[C@@H](C[S+](=O)([O-])C(C)C)N1C(=O)[C@@](C)(CC(=O)O)C[C@H](c2cccc(Cl)c2)[C@H]1c1ccc(Cl)cc1	109%	103%	108%	106%	113%	71.2%	17.2%	14%	15.4%	17.7%	15.6%	109%	111%	114%	114%	120%	107%	63.3%	50.6%	21.7%	11.7%	12.1%	119%	117%	120%	123%	122%	112%	81.2%	59.7%	25.7%	18.1%	21.1%
COc1cc(Nc2ncc(F)c(Nc3ccc4c(n3)NC(=O)C(C)(C)O4)n2)cc(OC)c1OC	107%	112%	120%	114%	122%	118%	129%	101%	44.8%	4.38%	4.34%	114%	107%	126%	112%	119%	126%	113%	114%	62.3%	5.34%	5.36%	110%	122%	113%	122%	121%	121%	137%	112%	62.4%	5.87%	5.61%
